Laboratory results: patent US20230190760A1, “ADVANTAGEOUS THERAPIES FOR DISORDERS MEDIATED BY IKAROS OR AIOLOS” (C4 Therapeutics, Inc., priority 2020, published 2023)

Experiments:
DOHH-2 = assay: Anti-proliferative activity, 96 hours; details: Homo sapiens, DOHH-2, 96 h
[1] = test system: IMiD-resistant NCIH929 cells; assay: Growth of IMiD-resistant NCIH929 cells (CellTiter-Glo); details: at concentrations up to 10 μM
Description: Briefly, test compound was added to 384-well plates at a top concentration of 10 μM with 14 points, half log titration in duplicates. NCIH929 cells were seeded into the 384-well plates in RPMI medium containing 10% FBS and 0.05 mM 2-mercaptoethanol at a cell density of 750 cells per well. Cells treated in the absence of the test compound were the negative control and cells treated in the absence of CellTiter-Glo® 2.0 were the positive control. Cells treated with the test compounds were incubated at 37° C. with 5% CO2 for 96 hr. CellTiter-Glo reagent was then added to the cells and luminescence was acquired on EnVision™ Multilabel Reader (PerkinElmer, Santa Clara, Calif., USA). % Viability was determined by normalizing the signal with positive and DMSO treated negative controls on the same microtiter plate.

KARPASS422 = assay: Anti-proliferative activity, 96 hours
RPMI-8226 tumors = assay: RPMI-8226 xenograft, crossover from pomalidomide to Compound 1; assay type: in vivo, mice; details: 3000 μg/kg/day for 17 days
Description: Vehicle treated animals were treated for 28 days until tumors reached a MTV of 2211 mm^3. […] Data are expressed as MTV±SEM.
Tumor growth was monitored throughout the study. […] Measurements were twice weekly. The health of the mice was monitored, and noteworthy clinical observations were recorded. Acceptable toxicity was defined as a group's mean BW loss of less than 20% during the study and not more than one treatment related death among ten treated animals, or 10%.
Animals were weighed on a twice weekly schedule.

Farage = assay: Anti-proliferative activity, 96 hours
Rec-1 = assay: Anti-proliferative activity, 96 hours; details: Homo sapiens, Rec1, 96 h
HH = assay: Anti-proliferative activity, 96 hours; details: Homo sapiens
Mino = assay: Anti-proliferative activity, 96 hours; details: Homo sapiens
Pfeiffer = assay: Anti-proliferative activity, 96 hours; details: Homo sapiens
SU-DHL-2 = assay: Anti-proliferative activity, 96 hours; details: Homo sapiens, SU-DHL-2, 96 h
HuT 102 = assay: Anti-proliferative activity, 96 hours; details: HuT-102, 96 h
WSU-DLCL2 = assay: Anti-proliferative activity, 96 hours; details: Homo sapiens, WSUDLCL2, 96 h
TMD8 = assay: Anti-proliferative activity, 96 hours; details: Homo sapiens, TMD8, 96 h
KMS-26 = assay: Anti-proliferative activity, 96 hours; details: KMS-26, 96 h
OCI-LY10 = assay: Anti-proliferative activity, 96 hours; details: Homo sapiens, OCI-Ly10, 96 h
KIJK = assay: Anti-proliferative activity, 96 hours
RL = assay: Anti-proliferative activity, 96 hours; details: Homo sapiens
Jeko-1 = assay: Anti-proliferative activity, 96 hours; details: Homo sapiens, JeKo-1, 96 h
KMM-1 = assay: Anti-proliferative activity, 96 hours; details: KMM-1, 96 h
OPM-2 = assay: Anti-proliferative activity, 96 hours; details: Homo sapiens, OPM-2, 96 h
Maver-1 = assay: Anti-proliferative activity, 96 hours; details: Homo sapiens, Maver1, 96 h
LP-1 = assay: Anti-proliferative activity, 96 hours; details: Homo sapiens, LP-1, 96 h
MM.1S = assay: Anti-proliferative activity, 96 hours; details: Homo sapiens, MM1.S
DL40 = assay: Anti-proliferative activity, 96 hours
SU-DHL-5 = assay: Anti-proliferative activity, 96 hours; details: Homo sapiens, SU-DHL-5, 96 h
[2] = test system: NCI-H929 multiple myeloma tumors; assay: NCI-H929 multiple myeloma xenograft, NOD SCID mice (Example 13); assay type: in vivo; details: 3000 μg/kg PO QD
Description: Compound 1 efficacy in two multiple myeloma cell lines (NC-H929) and (RPMI-8226) was evaluated at four different doses: 3 μg/kg, 10 μg/kg, 30 μg/kg, and 100 μg/kg. Compound 1 was administered QD (every day) orally (PO). […]
For the NCI-H929 cells, the xenograft study was conducted in female NOD SCID mice bearing NCI-H929 multiple myeloma tumors.
(§1) Statistical analysis was performed using two-way analysis of variance (ANOVA). Data are expressed as MTV±SEM.

[3] = test system: Caspase 3/7 activity in TMD8 cells; assay: Apoptosis induction, Caspase 3/7 activity in TMD8 cells; details: Homo sapiens, TMD8, 48 h, read-out: EC50, caspase 3/7 activity
Description: 30 μL TMD8 cells were seeded into the 384-well plates in RPMI medium containing 10% FBS at a cell density of 2000 cells per well. Cells treated in the absence of the test compound were the negative control. Following compound treatment, cells were incubated at 37° C. with 5% CO2 for 48 hr. 30 μL reconstituted Caspase 3/7 Assay detection reagent was added to each well and luminescence was acquired on EnVision™ Multilabel Reader (PerkinElmer, Santa Clara, Calif., USA).

[4] = test system: REC1 mantle cell lymphoma tumors; assay: REC1 mantle cell lymphoma xenograft, balb/c nude mice; assay type: in vivo; details: Compound 1 10, 30, or 100 μg/kg; pomalidomide 3000 μg/kg; 18 days
Description: A xenograft study was conducted in female balb/c nude mice bearing REC1 mantle cell lymphoma tumors.
as §1

H929 = assay: Anti-proliferative activity, 96 hours; details: Homo sapiens, NCI-H929, 96 h
TMD8 DLBCL tumors = assay: TMD8 DLBCL xenograft, NOD SCID mice; assay type: in vivo; details: Compound 1 100 μg/kg; pomalidomide 3000 μg/kg; 18 days
Description: A xenograft study was also conducted in female NOD SCID mice bearing TMD8 DLBCL tumors.
as §1

NCIH929 cells = assay: NCI-H929 viability assay (CellTiter-Glo); details: 96 hours
Description: NCIH929 cell viability was determined based on quantification of ATP using CellTiter-Glo®2.0 luminescent Assay kit, which signals the presence of metabolically-active cells. Briefly, test compound was added to 384-well plates at a top concentration of 1 μM with 10 points, half log titration in duplicates. NCIH929 cells were seeded into the 384-well plates in RPMI medium containing 10% FBS and 0.05 mM 2-mercaptoethanol at a cell density of 750 cells per well. Cells treated in the absence of the test compound were the negative control and cells treated in the absence of CellTiter-Glo® 2.0 were the positive control. Cells treated with the test compounds were incubated at 37° C. with 5% CO2 for 96 hr. CellTiter-Glo reagent was then added to the cells and Luminescence was acquired on EnVision™ Multilabel Reader (PerkinElmer, Santa Clara, Calif., USA). % Viability was determined by normalizing the signal with positive and DMSO treated negative controls on the same microtiter plate. […] Curve fit and IC502 determination was performed by 4 parametric regression analysis.

SU-DHL-1 = assay: Anti-proliferative activity, 96 hours; details: Homo sapiens, SU-DHL-1, 96 h
MM.1R = assay: Anti-proliferative activity, 96 hours
[5] = test system: Caspase 3/7 activity in NCIH929 multiple myeloma cells; assay: Apoptosis induction, Caspase 3/7 activity in NCIH929 cells; assay type: cell-based; details: Homo sapiens, NCI-H929, 72 h, read-out: EC50, caspase 3/7 activity
Description: 30 μL NCIH929 cells were seeded into the 384-well plates in RPMI medium containing 10% FBS and 0.05 mM 2-mercaptoethanol at a cell density of 1000 cells per well. Cells treated in the absence of the test compound were the negative control. Following compound treatment, cells were incubated at 37° C. with 5% CO2 for 72 hr. 30 μL reconstituted Caspase 3/7 Assay detection reagent was added to each well and luminescence was acquired on EnVision™ Multilabel Reader (PerkinElmer, Santa Clara, Calif., USA).

SR = assay: Anti-proliferative activity, 96 hours; details: Homo sapiens
IKZF1 = IKZF1 (Homo sapiens, UniProt Q13422+Q96SW2)
Chain of IKZF1 (Q13422 whole entry): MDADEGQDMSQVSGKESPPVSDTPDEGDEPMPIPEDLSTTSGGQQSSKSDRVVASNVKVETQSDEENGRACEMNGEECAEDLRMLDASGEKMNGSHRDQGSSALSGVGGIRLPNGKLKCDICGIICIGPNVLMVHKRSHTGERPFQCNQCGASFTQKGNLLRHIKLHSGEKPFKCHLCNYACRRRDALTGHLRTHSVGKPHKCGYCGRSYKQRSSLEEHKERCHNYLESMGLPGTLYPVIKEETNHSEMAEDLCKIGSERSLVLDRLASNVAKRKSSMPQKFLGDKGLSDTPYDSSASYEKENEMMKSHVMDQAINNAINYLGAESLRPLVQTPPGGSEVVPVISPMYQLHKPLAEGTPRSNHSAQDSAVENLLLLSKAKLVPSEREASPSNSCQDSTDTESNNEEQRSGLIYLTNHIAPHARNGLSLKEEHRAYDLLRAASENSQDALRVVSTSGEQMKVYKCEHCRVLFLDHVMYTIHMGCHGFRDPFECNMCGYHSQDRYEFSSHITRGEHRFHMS
Chain of IKZF1 (Q96SW2 whole entry): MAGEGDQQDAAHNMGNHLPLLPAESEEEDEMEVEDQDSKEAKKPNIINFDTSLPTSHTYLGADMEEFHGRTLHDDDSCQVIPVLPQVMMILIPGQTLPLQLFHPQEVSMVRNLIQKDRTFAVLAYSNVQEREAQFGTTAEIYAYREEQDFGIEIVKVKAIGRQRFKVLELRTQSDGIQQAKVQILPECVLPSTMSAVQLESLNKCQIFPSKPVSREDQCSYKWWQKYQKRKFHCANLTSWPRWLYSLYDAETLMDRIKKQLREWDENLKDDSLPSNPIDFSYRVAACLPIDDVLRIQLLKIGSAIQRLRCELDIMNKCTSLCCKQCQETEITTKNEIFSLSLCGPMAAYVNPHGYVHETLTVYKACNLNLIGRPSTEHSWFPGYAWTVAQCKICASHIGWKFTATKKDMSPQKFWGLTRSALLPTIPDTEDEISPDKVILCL
Chain of IKZF1 (Q16531 2-1140 partner limits assumed): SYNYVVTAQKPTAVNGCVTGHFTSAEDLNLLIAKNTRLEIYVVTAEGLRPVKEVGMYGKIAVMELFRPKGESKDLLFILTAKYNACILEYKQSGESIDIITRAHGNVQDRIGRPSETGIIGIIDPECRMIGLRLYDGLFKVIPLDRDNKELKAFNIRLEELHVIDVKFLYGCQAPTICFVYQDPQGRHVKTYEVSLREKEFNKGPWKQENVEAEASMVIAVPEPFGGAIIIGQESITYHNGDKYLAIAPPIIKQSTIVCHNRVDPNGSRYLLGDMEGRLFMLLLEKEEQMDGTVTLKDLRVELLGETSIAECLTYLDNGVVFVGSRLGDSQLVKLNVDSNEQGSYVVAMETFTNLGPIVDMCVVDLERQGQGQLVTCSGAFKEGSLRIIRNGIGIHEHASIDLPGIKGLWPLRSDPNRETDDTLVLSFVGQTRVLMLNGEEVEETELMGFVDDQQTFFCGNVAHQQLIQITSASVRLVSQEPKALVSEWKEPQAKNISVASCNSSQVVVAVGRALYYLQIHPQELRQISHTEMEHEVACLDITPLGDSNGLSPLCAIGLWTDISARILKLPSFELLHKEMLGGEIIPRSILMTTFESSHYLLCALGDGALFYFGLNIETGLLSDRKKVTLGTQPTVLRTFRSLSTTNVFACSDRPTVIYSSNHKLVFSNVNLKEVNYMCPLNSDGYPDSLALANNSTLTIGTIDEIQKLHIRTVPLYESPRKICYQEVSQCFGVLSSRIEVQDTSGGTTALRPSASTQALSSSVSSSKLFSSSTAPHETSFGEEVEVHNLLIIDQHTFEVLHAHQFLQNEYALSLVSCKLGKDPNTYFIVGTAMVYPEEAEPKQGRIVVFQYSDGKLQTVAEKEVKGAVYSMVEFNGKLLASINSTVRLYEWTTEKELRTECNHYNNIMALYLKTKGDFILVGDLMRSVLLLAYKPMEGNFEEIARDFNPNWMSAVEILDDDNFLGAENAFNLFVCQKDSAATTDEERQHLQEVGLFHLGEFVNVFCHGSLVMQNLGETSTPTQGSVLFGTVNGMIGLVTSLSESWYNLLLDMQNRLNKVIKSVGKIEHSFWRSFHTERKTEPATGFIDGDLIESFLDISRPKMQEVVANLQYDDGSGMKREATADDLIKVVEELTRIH
Description: Endogenous expression of IKZF1 in NCIH929 cells was determined by addition of N-terminal HiBiT tag to the NCIH929 cell line using CRISPR-Cas9. Briefly, test compound was added to 384-well plates at a top concentration of 1 μM with 10 points, half log titration in duplicates. NCIH929 cells expressing HiBiT-tagged IKZF1 were seeded into the 384-well plates in RPMI medium containing 10% FBS and 0.05 mM 2-mercaptoethanol at a cell density of 15000 cells per well. Cells treated in the absence of the test compound were the negative control and wells containing media only were the positive control. Following compound treatment, cells were incubated at 37° C. with 5% CO2 for 1.5 hr. HiBiT signal was determined using Nano-Glo™ HiBiT Lytic Assay System (Promega, N3050) and luminescence was acquired on EnVision™ Multilabel Reader (PerkinElmer, Santa Clara, Calif., USA). % IKZF1 remaining was determined by normalizing the signal with positive and negative controls on the same microtiter plate. […] Curve fit and IC50 determination was performed by 4 parametric regression analysis.
NCIH929 cells expressing HiBiT-tagged IKZF1 were seeded into the 384-well plates in RPMI medium containing 10% FBS and 0.05 mM 2-mercaptoethanol at a cell density of 15000 cells per well. Cells treated in the absence of the test compound were the negative control and wells containing media only were the positive control. […]

RPMI 8226 = assay: Anti-proliferative activity, 96 hours; details: Homo sapiens, RPMI-8226, 96 h

IC50 (KARPASS422): 24.4 nM
IC50 (SU-DHL-2): > 10000 nM
IC50 (OCI-LY10): 47.7 nM
IC50 (MM.1S): 71 nM
IC50 (SU-DHL-5): > 10000 nM
EC50 [3]: 1200 nM
IC50 (H929): 171 nM
IC50 (NCIH929 cells; read-out: Mean IC50 (nM), H929 Viability): 141 nM
IC50 (SU-DHL-1): 378 nM
IC50 (MM.1R): 193 nM
EC50 [5]: 407 nM
Emax (IKZF1; NCI-H929, read-out: Mean Emax (%) ± SD, IKZF1 Degradation): 55.7 ± 6%
IKZF1 degradation (IKZF1; after 1 hour treatment): less than 25%
SMILES: Nc1cccc2c1C(=O)N(C1CCC(=O)NC1=O)C2=O (stereo not drawn) [Pomalidomide, reference compound]
IC50 (DOHH-2): 1150 nM
growth inhibition [1]: less than 50%
tumor response (RPMI-8226 tumors): no response
IC50 (Farage): > 10000 nM
IC50 (Rec-1): 44.8 nM
IC50 (HH): > 10000 nM
IC50 (Mino): 426 nM
IC50 (Pfeiffer): > 10000 nM
IC50 (HuT 102): > 10000 nM
IC50 (WSU-DLCL2): > 10000 nM
IC50 (TMD8): 327 nM
IC50 (KMS-26): 2090 nM
IC50 (KIJK): 4330 nM
IC50 (RL): > 10000 nM
IC50 (Jeko-1): > 10000 nM
IC50 (KMM-1): 527 nM
IC50 (OPM-2): 93.3 nM
IC50 (Maver-1): > 10000 nM
IC50 (LP-1): 576 nM
IC50 (DL40): > 10000 nM
Statistical Significance Compared to Vehicle [2]: 0.718
tumor volume [4]: increased
tumor volume (TMD8 DLBCL tumors): increased
Mean Emax (%) ± SD, H929 Viability (NCIH929 cells; % viability): 15.6 ± 4.2%
IC50 (SR): > 10000 nM
IC50 (RPMI 8226): > 10000 nM
